# Test results taken from patent US6316451A, “Heterocyclyl anthracyclinone derivatives” (Pharmacia & Upjohn S.p.A., priority 1998, dated 2001).
# Target: T1, Aβ1-40 peptide monomer (Homo sapiens, UniProt P05067)
# T1 construct: An Aβ1-40 peptide monomer stock solution was prepared
# Experiment: Inhibition of the seed-triggered aggregation of Aβ1-40 peptide monomer (HPLC quantitation of residual monomer)
# Assay type: biochemical
# Details: 50 μm test compound; 20 μM Aβ1-40 monomer; 4 μm pre-formed sonicated Aβ1-40 fibrils (seed); phosphate buffer pH 7.4, 150 mM NaCl; two hours at 37° C.
# Method: The compounds disclosed in the present invention interfere with the aggregation of monomeric Aβ1-40 peptide stimulated by a seed of Aβ1-40 amyloid fibrils. The activity of the compounds was assessed according to the procedure reported below.
# An Aβ1-40 peptide monomer stock solution was prepared by dissolving the peptide in dimethylsulfoxide at a concentration of 33.33 mg/ml. The stock solution was further diluted 11.5 times with dimethylsulfoxide. This solution was then diluted with 10 mM phosphate buffer pH 7.4 containing 150 mM sodium chloride to prepare the test solution.
# To an eppendorf tube containing 47 μl of Aβ1-40 peptide monomer solution were added 3 μl of a 830 μM water solution of the test compound containing 66.4 μM, based on the Aβ1-40 monomer content, of pre-formed sonicated Aβ1-40 fibrils: the resulting solution was 20 μM in Aβ1-40 monomer, 50 μm in the test compound and contained 4 μm, based on the Aβ1-40 monomer content, of pre-formed sonicated Aβ1-40 fibrils. The aggregation was allowed to proceed for two hours at 37° C. The suspension was then centrifuged at 15000 rpm for 15 minutes at +4° C., the supernatant was collected and the Aβ1-40 monomer was quantitated by HPLC.
# The activity is expressed as the percent of inhibition of the aggregation of a 20 μM Aβ1-40 monomer solution stimulated by 4 μm, based on the Aβ1-40 monomer content, pre-formed sonicated Aβ1-40 fibrils.
# T1 sequence (P05067 672-711 limits assumed): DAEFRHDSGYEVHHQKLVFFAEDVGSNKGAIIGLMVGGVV
row,% INHIBITION of the aggregation of Aβ1-40 monomer,Compound
1,33.7%,"COc1cccc2c1C(=O)c1c(O)c3c(c(O)c1C2=O)C[C@@](O)(c1csc(NCCN(C)C)n1)C[C@@H]3O [Compound 1d, 9-Deacetyl-9-[2-(2-dimethylaminoethylamino)-thiazol-4-yl]-daunomycinone]"
2,31.7%,"COc1cccc2c1C(=O)c1c(O)c3c(c(O)c1C2=O)C[C@@](O)(c1csc(N2CCN(C)CC2)n1)CC3 [Compound 1i, 7-Deoxy-9-deacetyl-9-[2-(4-methyl-piperazin-1-yl)-thiazol-4-yl]-daunomycinone]"
3,49.2%,"COc1cccc2c1C(=O)c1c(O)c3c(c(O)c1C2=O)C[C@@](O)(c1csc(N2CCN(C)CC2)n1)C[C@@H]3N1CCOCC1 [Compound 1j, 7-Deoxy-7-(4-morpholinyl)-9-deacetyl-9-[2-(4-methyl-perazin-1-yl)-thiazol-4-yl]-daunomycinone]"
